Assay results published in US20060229299A1, “5ht2c Receptor antagonists in the treatment of schizophrenia” (priority 2003, published 2006).
Where two headings read alike, the source gives them in different places.

Assays:
[1] = biological target: D2 receptor (Homo sapiens, UniProt P14416); conditions: Table 3; expressed as pKi or pKd values; known affinities; cited from earlier work
[2] = biological target: 5-HT2A receptor (Homo sapiens, UniProt P28223); conditions: Table 3; expressed as pKi or pKd values; known affinities; cited from earlier work
[3] = test system: 5-HT2C receptor relative to 5-HT2A and D2 receptors; experiment: Relative 5-HT2C affinity (formula I, sum of 5-HT2C/5-HT2A and 5-HT2C/D2 affinity ratios)
[4] = biological target: α1-adrenoceptor; conditions: human, expressed as KD; cited from earlier work
[5] = design: key: 1-high; 2-medium; 3-low probability; conditions: Table 4A; grading of probability from literature reports; cited from earlier work
[6] = biological target: T1, 5-HT2C receptor (Homo sapiens, UniProt P28335); conditions: Table 3; expressed as pKi or pKd values; known affinities; cited from earlier work
T1 sequence (P28335 33-458): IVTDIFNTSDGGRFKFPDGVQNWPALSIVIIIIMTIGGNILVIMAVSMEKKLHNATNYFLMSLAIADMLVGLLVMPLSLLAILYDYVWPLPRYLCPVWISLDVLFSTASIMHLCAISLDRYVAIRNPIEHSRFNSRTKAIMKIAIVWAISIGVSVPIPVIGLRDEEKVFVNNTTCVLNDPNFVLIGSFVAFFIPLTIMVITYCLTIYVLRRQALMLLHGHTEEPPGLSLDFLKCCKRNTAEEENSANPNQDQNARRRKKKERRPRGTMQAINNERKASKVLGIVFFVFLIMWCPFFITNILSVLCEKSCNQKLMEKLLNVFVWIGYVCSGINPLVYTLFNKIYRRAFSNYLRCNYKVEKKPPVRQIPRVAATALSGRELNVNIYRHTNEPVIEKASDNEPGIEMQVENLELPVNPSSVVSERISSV

[7] = biological target: sigma, σ receptor; conditions: guinea-pig; cited from earlier work
[8] = biological target: α2-adrenoceptor; conditions: cited from earlier work
[9] = biological target: D2-L (long form of D2 receptor) (Homo sapiens, UniProt P14416); conditions: cited from earlier work
[10] = biological target: mACh, muscarinic acetylcholine receptor; conditions: rat; cited from earlier work
[11] = biological target: T2, D4 dopamine receptor (Homo sapiens, UniProt P21917); conditions: human; cited from earlier work
T2 sequence (P21917 1-419): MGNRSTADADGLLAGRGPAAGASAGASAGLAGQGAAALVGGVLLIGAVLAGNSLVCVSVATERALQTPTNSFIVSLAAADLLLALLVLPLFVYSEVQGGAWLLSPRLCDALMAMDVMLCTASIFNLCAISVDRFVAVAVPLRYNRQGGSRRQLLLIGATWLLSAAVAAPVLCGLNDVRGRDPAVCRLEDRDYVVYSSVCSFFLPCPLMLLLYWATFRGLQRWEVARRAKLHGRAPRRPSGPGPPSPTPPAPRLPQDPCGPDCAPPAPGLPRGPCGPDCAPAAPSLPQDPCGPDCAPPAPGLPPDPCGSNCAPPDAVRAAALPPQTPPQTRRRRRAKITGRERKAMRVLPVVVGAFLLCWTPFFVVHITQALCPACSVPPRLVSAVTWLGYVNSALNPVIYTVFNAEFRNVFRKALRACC

[12] = biological target: T3, 5-HT3 receptor (Mus musculus, UniProt P23979); conditions: cited from earlier work
T3 sequence (P23979 24-489): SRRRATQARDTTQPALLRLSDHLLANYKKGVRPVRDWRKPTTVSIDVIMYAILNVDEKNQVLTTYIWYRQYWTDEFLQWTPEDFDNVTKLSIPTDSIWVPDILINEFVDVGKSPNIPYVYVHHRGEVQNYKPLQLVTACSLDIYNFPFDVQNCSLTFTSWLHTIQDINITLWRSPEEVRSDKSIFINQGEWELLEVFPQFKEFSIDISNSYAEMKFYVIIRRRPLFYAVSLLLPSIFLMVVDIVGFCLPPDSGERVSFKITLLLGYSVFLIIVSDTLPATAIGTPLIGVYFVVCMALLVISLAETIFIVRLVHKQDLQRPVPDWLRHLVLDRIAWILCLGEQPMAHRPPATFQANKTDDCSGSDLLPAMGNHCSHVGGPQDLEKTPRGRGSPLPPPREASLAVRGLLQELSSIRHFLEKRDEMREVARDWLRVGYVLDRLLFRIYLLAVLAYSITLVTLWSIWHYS

[13] = biological target: D2-S (short form of D2 receptor) (Homo sapiens, UniProt P14416); conditions: cited from earlier work
[14] = biological target: T4, 5-HT1A receptor (Rattus norvegicus, UniProt P19327); conditions: cited from earlier work
T4 sequence (P19327 1-422): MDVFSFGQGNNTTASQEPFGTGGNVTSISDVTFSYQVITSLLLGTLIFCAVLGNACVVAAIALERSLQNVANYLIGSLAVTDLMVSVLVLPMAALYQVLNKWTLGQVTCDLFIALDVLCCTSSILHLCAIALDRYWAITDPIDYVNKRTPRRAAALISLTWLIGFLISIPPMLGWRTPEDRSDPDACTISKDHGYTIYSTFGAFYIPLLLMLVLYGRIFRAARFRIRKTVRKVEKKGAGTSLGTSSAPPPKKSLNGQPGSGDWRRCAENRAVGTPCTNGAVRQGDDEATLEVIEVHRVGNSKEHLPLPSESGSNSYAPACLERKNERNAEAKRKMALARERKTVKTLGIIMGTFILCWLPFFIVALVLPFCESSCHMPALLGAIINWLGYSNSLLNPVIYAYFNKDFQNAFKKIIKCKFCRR

[15] = biological target: T5, 5-HT2C receptor (Sus scrofa, UniProt K7GSR7); conditions: pig; cited from earlier work
T5 sequence (K7GSR7 1-457): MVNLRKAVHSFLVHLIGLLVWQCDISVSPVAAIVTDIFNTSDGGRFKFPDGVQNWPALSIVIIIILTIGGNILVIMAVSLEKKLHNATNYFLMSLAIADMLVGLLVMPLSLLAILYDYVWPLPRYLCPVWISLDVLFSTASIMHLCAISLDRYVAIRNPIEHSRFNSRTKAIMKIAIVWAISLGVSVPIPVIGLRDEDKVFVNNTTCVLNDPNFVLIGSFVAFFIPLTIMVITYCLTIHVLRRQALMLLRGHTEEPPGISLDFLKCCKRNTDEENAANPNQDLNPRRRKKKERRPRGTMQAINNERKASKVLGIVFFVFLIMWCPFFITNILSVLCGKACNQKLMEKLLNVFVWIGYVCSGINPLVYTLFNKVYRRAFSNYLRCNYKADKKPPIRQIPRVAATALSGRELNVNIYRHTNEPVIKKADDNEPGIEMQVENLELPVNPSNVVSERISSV

[16] = biological target: α1-adrenoceptor; conditions: species for α1 not given; cited from earlier work
[17] = biological target: 5-HT7 receptor (Mus musculus, UniProt P32304); conditions: cited from earlier work
[18] = design: key: 1-high; 2-medium; 3-low probability; conditions: Table 4A; grading of probability from literature reports; cited from earlier work; remark: listed apart in the source
[19] = design: key to Weight Gain: 1-high; 2-medium; 3-low probability; conditions: cited from earlier work; for Weight Gain: Table 4A, grading of probability from literature reports
[20] = biological target: 5-HT6 receptor (Rattus norvegicus, UniProt P31388); conditions: cited from earlier work
[21] = biological target: D1 dopamine receptor (Homo sapiens, UniProt P21728); conditions: cited from earlier work
[22] = biological target: 5-HT7 receptor (Rattus norvegicus, UniProt P32305); conditions: cited from earlier work
[23] = design: key: 1-high; 2-medium; 3-low probability; conditions: Table 4A; grading of probability from literature reports; cited from earlier work; remark: listed apart in the source
[24] = biological target: D1 dopamine receptor (Rattus norvegicus, UniProt P18901); conditions: cited from earlier work
[25] = biological target: α1-adrenoceptor; conditions: rat; cited from earlier work
[26] = Table 3, calculated from known 5-HT2C/5-HT2A/D2 affinities

Chain of 5-HT2A receptor (P28223 whole entry): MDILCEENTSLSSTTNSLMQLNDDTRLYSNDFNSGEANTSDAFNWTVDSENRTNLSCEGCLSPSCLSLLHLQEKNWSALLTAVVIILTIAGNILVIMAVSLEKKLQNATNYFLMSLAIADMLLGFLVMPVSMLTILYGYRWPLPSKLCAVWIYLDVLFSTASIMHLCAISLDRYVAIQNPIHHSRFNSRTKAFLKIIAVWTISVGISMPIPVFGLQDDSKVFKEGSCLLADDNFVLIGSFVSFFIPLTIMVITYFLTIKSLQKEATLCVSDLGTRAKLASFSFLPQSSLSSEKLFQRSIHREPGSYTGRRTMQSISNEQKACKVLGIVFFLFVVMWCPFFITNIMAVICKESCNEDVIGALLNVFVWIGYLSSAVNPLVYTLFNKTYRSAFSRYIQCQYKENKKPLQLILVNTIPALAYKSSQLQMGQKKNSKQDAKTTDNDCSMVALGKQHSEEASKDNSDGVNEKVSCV
Chain of D2 receptor (P14416 whole entry): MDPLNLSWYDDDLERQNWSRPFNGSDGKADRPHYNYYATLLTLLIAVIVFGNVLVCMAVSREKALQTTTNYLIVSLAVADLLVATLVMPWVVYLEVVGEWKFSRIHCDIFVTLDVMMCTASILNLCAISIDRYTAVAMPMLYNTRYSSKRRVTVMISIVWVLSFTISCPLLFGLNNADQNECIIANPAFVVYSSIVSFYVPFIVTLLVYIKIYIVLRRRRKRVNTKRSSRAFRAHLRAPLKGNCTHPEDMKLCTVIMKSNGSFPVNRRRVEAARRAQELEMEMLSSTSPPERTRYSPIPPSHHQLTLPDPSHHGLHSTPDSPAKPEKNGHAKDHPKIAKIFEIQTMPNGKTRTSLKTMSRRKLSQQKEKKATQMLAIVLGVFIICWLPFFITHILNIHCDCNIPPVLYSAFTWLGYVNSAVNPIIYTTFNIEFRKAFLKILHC
Chain of 5-HT7 receptor (Mus musculus, UniProt P32304) (P32304 whole entry): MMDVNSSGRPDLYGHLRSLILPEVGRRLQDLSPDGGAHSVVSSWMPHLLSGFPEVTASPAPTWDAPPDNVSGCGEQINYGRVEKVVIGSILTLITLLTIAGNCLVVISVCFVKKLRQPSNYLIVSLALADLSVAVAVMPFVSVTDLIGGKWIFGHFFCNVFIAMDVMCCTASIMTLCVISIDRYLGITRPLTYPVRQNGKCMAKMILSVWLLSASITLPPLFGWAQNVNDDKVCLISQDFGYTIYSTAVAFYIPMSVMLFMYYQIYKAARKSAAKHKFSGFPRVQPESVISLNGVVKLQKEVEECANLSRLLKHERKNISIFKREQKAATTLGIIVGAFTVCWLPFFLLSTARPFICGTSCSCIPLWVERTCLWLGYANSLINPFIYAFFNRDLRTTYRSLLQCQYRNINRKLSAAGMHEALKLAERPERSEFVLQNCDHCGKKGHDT
Chain of 5-HT6 receptor (P31388 whole entry): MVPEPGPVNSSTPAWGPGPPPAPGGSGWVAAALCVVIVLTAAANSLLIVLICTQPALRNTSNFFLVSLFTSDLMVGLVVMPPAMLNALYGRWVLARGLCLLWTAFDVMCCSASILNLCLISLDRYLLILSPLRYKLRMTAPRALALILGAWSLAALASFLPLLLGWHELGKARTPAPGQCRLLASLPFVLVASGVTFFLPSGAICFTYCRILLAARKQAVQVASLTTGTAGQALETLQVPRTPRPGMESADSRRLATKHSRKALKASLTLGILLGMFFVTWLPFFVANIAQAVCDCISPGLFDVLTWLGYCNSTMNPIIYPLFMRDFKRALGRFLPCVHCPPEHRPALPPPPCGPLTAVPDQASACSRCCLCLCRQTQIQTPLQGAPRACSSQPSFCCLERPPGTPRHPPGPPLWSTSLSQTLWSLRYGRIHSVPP
Chain of 5-HT7 receptor (Rattus norvegicus, UniProt P32305) (P32305 whole entry): as the sequence (P32304 whole entry) above, with R27G, S39P, P53L, S279P, C438S counted along it
Chain of D1 dopamine receptor (Homo sapiens, UniProt P21728) (P21728 whole entry): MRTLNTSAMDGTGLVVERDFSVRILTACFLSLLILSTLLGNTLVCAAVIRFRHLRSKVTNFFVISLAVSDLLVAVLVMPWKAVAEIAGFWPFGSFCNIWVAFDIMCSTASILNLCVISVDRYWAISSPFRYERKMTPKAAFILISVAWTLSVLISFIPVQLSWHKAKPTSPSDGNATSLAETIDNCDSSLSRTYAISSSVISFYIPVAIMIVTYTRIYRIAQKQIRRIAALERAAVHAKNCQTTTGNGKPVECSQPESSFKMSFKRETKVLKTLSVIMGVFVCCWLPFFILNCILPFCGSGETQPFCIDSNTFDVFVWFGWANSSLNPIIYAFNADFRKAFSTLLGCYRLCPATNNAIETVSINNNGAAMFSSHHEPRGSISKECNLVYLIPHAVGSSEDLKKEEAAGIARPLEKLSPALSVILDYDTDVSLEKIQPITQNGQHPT
Chain of D2-S (short form of D2 receptor) (P14416 1-414 isoform P14416-2): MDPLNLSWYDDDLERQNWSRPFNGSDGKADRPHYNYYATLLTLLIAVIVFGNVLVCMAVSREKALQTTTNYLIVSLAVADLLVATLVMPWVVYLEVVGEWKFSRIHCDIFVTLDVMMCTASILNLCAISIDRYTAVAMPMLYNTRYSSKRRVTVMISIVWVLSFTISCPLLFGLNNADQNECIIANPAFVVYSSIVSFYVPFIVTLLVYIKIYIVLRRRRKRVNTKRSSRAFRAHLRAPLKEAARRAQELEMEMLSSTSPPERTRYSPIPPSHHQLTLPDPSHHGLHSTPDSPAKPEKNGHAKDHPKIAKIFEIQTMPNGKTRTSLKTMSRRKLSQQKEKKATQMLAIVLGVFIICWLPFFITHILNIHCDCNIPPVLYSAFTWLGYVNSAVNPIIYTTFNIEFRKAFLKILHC
Chain of D2-L (long form of D2 receptor) (P14416 whole entry): as the sequence (P14416 whole entry) above
Chain of D1 dopamine receptor (Rattus norvegicus, UniProt P18901) (P18901 whole entry): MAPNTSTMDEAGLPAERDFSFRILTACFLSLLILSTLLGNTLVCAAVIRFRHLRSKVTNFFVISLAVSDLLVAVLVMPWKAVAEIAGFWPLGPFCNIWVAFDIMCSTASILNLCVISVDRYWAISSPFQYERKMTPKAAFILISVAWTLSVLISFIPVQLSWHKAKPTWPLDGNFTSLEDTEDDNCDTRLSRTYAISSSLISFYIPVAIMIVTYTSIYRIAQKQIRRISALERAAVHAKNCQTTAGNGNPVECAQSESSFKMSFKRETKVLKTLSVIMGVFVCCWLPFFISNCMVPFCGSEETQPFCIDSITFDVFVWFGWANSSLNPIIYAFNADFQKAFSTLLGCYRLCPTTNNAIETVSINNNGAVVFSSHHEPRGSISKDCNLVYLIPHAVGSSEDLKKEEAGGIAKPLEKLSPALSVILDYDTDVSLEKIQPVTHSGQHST

**Q.** Which “D2 Affinity” value [1] does the source give for `CCCN1CCC[C@H]2c3c(OC)cccc3OC[C@@H]21.Cl` (stereo in doubt) [CGS-18102A, 10-methoxy-4-propyl-1,2,3,4a,5,10b-hexahydro-4H-[1]-benzopyrano[3,4-b]pyridine hydrochloride] here?
**A.** 7.4

**Q.** And the “5-HT2A Affinity” value [2]?
**A.** 6.6

**Q.** And the “Formula I Affinity Ratio” value [3, 26]?
**A.** 2.06

**Q.** With `CN(C)CCCN1c2ccccc2Sc2ccc(Cl)cc21` [Chlorpromazine] as the molecule, how does the “α1 affinity value (−log KD)” value [4] read?
**A.** 8.6^16

**Q.** For `CN1CCN(C2=Nc3cc(Cl)ccc3Nc3ccccc32)CC1` [Clozapine], which Extra-pyramidal side effects [5] is on record?
**A.** 3

**Q.** With `CN(C)CCO[C@]1(c2ccccc2)C[C@H]2CC[C@]1(C)C2(C)C.O=C(O)/C=C/C(=O)O` [Deramciclane, (1R,2S,4R)-(−)-2-[2-(N,N-dimethylamino)-ethoxy]-2-phenyl-1,7,7-trimethylbicyclo[2.2.1]heptane] as the molecule, how does the “D2 Affinity” value [1] read?
**A.** 7

**Q.** What about the “5-HT2C Affinity” value [6] of the same molecule?
**A.** 7.8

**Q.** And the “5-HT2A Affinity” value [2]?
**A.** 8

**Q.** What about the “Formula I Affinity Ratio” value [3, 26] of the same molecule?
**A.** 2.09

**Q.** For `O=C1NCN(c2ccccc2)C12CCN(CCCC(c1ccc(F)cc1)c1ccc(F)cc1)CC2` [Fluspirilene], which “sigma affinity value (−logKi)” value [7] is on record?
**A.** 6.8^6

**Q.** What about the “α2 affinity value (−logKi)” value ([8]; species for α2 not stated) of the same molecule?
**A.** <5.3^6

**Q.** What about the “D2-L affinity value (−logKi)” value [9] of the same molecule?
**A.** 9.2^6

**Q.** What about the “mACh affinity value (−logKi)” value [10] of the same molecule?
**A.** <5.3^6

**Q.** And the “D4 affinity value (−logKi)” value [11]?
**A.** 8.4^6

**Q.** And the “5-HT3 affinity value (−logKi)” value [12]?
**A.** <5.3^6

**Q.** And the “D2-S affinity value (−logKi)” value [13]?
**A.** 8.9^6

**Q.** And the “5-HT1A affinity value (−logKi)” value [14]?
**A.** 7.3^6

**Q.** And the “(2C/2A) + (2C/D2)” value ([3]; Table 2, sum of affinity ratios from data of Table 1)?
**A.** 1.33

**Q.** And the “5-HT2C affinity value (−logKi)” value [15]?
**A.** 5.7^6

**Q.** And the “α1 affinity value (−logKi)” value [16]?
**A.** 7.0^6

**Q.** And the “5-HT7 affinity value (−logKi)” value [17]?
**A.** 7.5^6

**Q.** Which results are given for `CN(C)CCSc1nc2ccccc2cc1-c1ccccc1` [ICI-169369]?
**A.** D2 Affinity [1]: 6.5; 5-HT2C Affinity [6]: 8; 5-HT2A Affinity [2]: 7.7; Formula I Affinity Ratio [3, 26]: 2.27

**Q.** With `CC(C)N1CCN(CCN2CCC(c3cn(-c4ccc(F)cc4)c4cc(Cl)ccc34)CC2)C1=O` [LU-26042] as the molecule, how does the “D2 Affinity” value [1] read?
**A.** 6.9

**Q.** And the “5-HT2C Affinity” value [6]?
**A.** 7.8

**Q.** What about the “5-HT2A Affinity” value [2] of the same molecule?
**A.** 8.8

**Q.** And the “Formula I Affinity Ratio” value [3]?
**A.** 2.02

**Q.** With `Cc1cc2c(s1)Nc1ccccc1N=C2N1CCN(C)CC1` [Olanzapine] as the molecule, how does the Increases prolactin levels [18] read?
**A.** 2

**Q.** What about the “Weight Gain” value [19] of the same molecule?
**A.** 2

**Q.** And the “weight gain (in words)” value ([19]; text b109, literature reports)?
**A.** do cause weight gain

**Q.** And the Extra-pyramidal side effects [5]?
**A.** 1-2

**Q.** Which “5-HT2C Affinity” value [6] does the source give for `COc1cc(OC)c(C(=O)CCCCN2CCC3(CC2)NC(=O)NC3=O)cc1NS(=O)(=O)c1ccc(C(F)(F)F)cc1` [RS-102221] here?
**A.** 8.2

**Q.** And the “5-HT2A Affinity” value [2]?
**A.** 5.8

**Q.** What about the “Formula I Affinity Ratio” value [3, 26] of the same molecule?
**A.** 2.78

**Q.** For `CCN1CCCC1CNC(=O)c1cc(S(N)(=O)=O)ccc1OC` (stereo not drawn) [Sulpiride], which “5-HT6 affinity value (−logKi)” value [20] is on record?
**A.** <5.3^2

**Q.** What about the “D1 affinity value (−logKi)” value [21] of the same molecule?
**A.** <5^9

**Q.** And the “5-HT7 affinity value (−logKi)” value [22]?
**A.** <5.3^2

**Q.** For `CSc1ccc2c(c1)N(CCC1CCCCN1C)c1ccccc1S2` (stereo not drawn) [Thioridazine], which “D4 affinity value (−logKi)” value [11] is on record?
**A.** 7.9^12

**Q.** With `O=C1Cc2cc(CCN3CCN(c4nsc5ccccc45)CC3)c(Cl)cc2N1` [Ziprasidone] as the molecule, how does the “sigma affinity value (−logKi)” value [7] read?
**A.** <5.3^6

**Q.** What about the “5-HT6 affinity value (−logKi)” value [20] of the same molecule?
**A.** 6.9^14

**Q.** What about the “α2 affinity value (−logKi)” value ([8]; no reference given) of the same molecule?
**A.** <6

**Q.** And the Improvement negative symptoms [23]?
**A.** 2

**Q.** And the “D1 affinity value (−logKi)” value [24]?
**A.** 6.3^14

**Q.** And the Increases prolactin levels [18]?
**A.** 3

**Q.** What about the “5-HT3 affinity value (−logKi)” value [12] of the same molecule?
**A.** 5.5^6

**Q.** What about the “α1 affinity value (−logKi)” value [25] of the same molecule?
**A.** 8.0^14

**Q.** And the “Weight Gain” value [19]?
**A.** 3

**Q.** And the “5-HT7 affinity value (−logKi)” value [22]?
**A.** 7.6^14

**Q.** And the Extra-pyramidal side effects [5]?
**A.** 2

**Q.** What about the “5-HT1A affinity value (−logKi)” value [14] of the same molecule?
**A.** 7.9^6

**Q.** What about the “5-HT2C affinity value (−logKi)” value [15] of the same molecule?
**A.** 7.9^6

**Q.** What about the “5-HT7 affinity value (−logKi)” value [17] of the same molecule?
**A.** 8.3^6
